Source: the supplement of paper PMC10307832

How the values were obtained:
Test in all cases: relative viability (nuclei count vs DMSO), 5 days (fraction); higher = more cells survive
R406 + Vorinostat = compound: COc1cc(Nc2ncc(F)c(Nc3ccc4c(n3)NC(=O)C(C)(C)O4)n2)cc(OC)c1OC [R406] + O=C(CCCCCCC(=O)Nc1ccccc1)NO [Vorinostat] (partner 1 µM)
How it was run: (§1)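 Lung cancer cell lines in 1536-well plates were dosed by pin tool the day after seeding, either with one drug alone or with a fixed anchor-drug dose plus five library-drug doses (not always all listed) in √10 steps. After 5 days, cells were fixed and their nuclei stained in one step (final 0.05% Triton X-100, 1% formaldehyde, 1 ug/ml Hoechst), then counted on 4× images. Relative viability is the nuclei count in treated wells divided by that in vehicle wells. Values are medians of duplicate plates.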

R406 + Decitabine = compound: COc1cc(Nc2ncc(F)c(Nc3ccc4c(n3)NC(=O)C(C)(C)O4)n2)cc(OC)c1OC [R406] + Nc1ncn([C@H]2C[C@H](O)[C@@H](CO)O2)c(=O)n1 [Decitabine] (partner 2 µM)
How it was run: as §1

Daporinad + Lapatinib = compound: O=C(/C=C/c1cccnc1)NCCCCC1CCN(C(=O)c2ccccc2)CC1 [Daporinad] + CS(=O)(=O)CCNCc1ccc(-c2ccc3ncnc(Nc4ccc(OCc5cccc(F)c5)c(Cl)c4)c3c2)o1 [Lapatinib] (partner 2 µM)
How it was run: as §1

Daporinad + Alpelisib = compound: O=C(/C=C/c1cccnc1)NCCCCC1CCN(C(=O)c2ccccc2)CC1 [Daporinad] + Cc1nc(NC(=O)N2CCC[C@H]2C(N)=O)sc1-c1ccnc(C(C)(C)C(F)(F)F)c1 [Alpelisib] (partner 2 µM)
How it was run: as §1

Row | Cell Line | relative viability (R406 + Vorinostat; first compound 0.08 µM) | relative viability (R406 + Vorinostat; first compound 0.253 µM) | relative viability (R406 + Vorinostat; first compound 0.8 µM) | relative viability (R406 + Vorinostat; first compound 2.53 µM) | relative viability (R406 + Vorinostat; first compound 8 µM) | relative viability (R406 + Decitabine; first compound 0.08 µM) | relative viability (R406 + Decitabine; first compound 0.253 µM) | relative viability (R406 + Decitabine; first compound 0.8 µM) | relative viability (R406 + Decitabine; first compound 2.53 µM) | relative viability (R406 + Decitabine; first compound 8 µM) | relative viability (Daporinad + Lapatinib; first compound 0.0005 µM) | relative viability (Daporinad + Lapatinib; first compound 0.001581 µM) | relative viability (Daporinad + Lapatinib; first compound 0.005 µM) | relative viability (Daporinad + Lapatinib; first compound 0.01581 µM) | relative viability (Daporinad + Alpelisib; first compound 0.0005 µM) | relative viability (Daporinad + Alpelisib; first compound 0.001581 µM) | relative viability (Daporinad + Alpelisib; first compound 0.005 µM) | relative viability (Daporinad + Alpelisib; first compound 0.01581 µM)
1 | 201T | 0.893 | 1.02 | 1.02 | 0.795 | 0.749 | 0.838 | 0.847 | 0.861 | 0.839 | 0.586 | 0.957 | 1.05 | 1.02 | 1.04 | 0.983 | 1.05 | 1 | 0.987
2 | A549 |  |  |  |  |  | 0.22 | 0.261 | 0.257 | 0.258 | 0.311 | 0.973 | 1.05 | 0.938 | 0.607 | 0.764 | 0.804 | 0.879 | 0.572
3 | A-427 | 0.856 | 0.928 | 0.852 | 0.939 | 0.621 | 0.583 | 0.626 | 0.717 | 0.514 | 0.571 | 1.05 | 1.12 | 0.962 | 0.863 | 0.948 | 1.15 | 1.04 | 0.852
4 | ABC-1 | 1.33 | 1.37 | 1.35 | 1.11 | 0.765 | 1.02 | 1.21 | 1.03 | 0.793 | 0.736 | 1.14 | 0.952 | 1.24 | 0.86 | 1.21 | 1.18 | 0.969 | 0.989
5 | BEN | 0.606 | 0.601 | 0.607 | 0.555 | 0.542 | 0.679 | 0.793 | 0.726 | 0.683 | 0.441 | 0.646 | 0.688 | 0.858 | 1.11 | 0.924 | 0.979 | 1.08 | 1.27
6 | CAL-12T | 0.785 | 0.723 | 0.758 | 0.762 | 0.509 |  |  |  |  |  | 0.599 |  | 0.722 | 0.413 | 1.28 | 1.04 | 0.832 | 0.411
7 | COR-L23 | 0.483 | 0.433 | 0.424 | 0.279 | 0.244 | 0.397 | 0.447 | 0.512 | 0.339 | 0.326 | 0.969 | 0.993 | 0.92 | 0.403 | 0.891 | 1.01 | 0.691 | 0.183
8 | COR-L 105 | 0.743 | 0.893 | 0.824 | 0.651 | 0.514 | 0.593 | 0.561 | 0.758 | 0.563 | 0.475 | 0.371 | 0.371 | 0.385 | 0.442 | 1.14 | 1.02 | 1.12 | 1.06
9 | Calu-6 |  |  |  |  |  |  |  |  |  |  | 1.06 | 0.959 | 0.863 | 0.413 | 0.934 | 0.96 | 1.09 | 0.519
10 | ChaGo-K-1 | 0.755 | 0.839 | 0.822 | 0.609 | 0.637 | 0.491 | 0.546 | 0.557 | 0.504 | 0.506 |  |  |  |  |  |  |  | 
11 | EBC-1 |  |  |  |  |  |  |  |  |  |  | 0.238 | 0.216 | 0.206 | 0.17 | 0.761 | 0.901 | 0.935 | 0.859
12 | EKVX | 0.78 | 0.567 | 0.757 | 0.6 | 0.653 | 0.341 | 0.365 | 0.316 | 0.336 | 0.354 | 0.169 | 0.223 | 0.231 | 0.251 | 0.83 | 0.87 | 0.873 | 1.18
13 | EMC-BAC-2 | 0.405 | 0.785 | 0.53 | 0.411 | 0.145 | 0.942 | 1.03 | 1.06 | 0.974 | 0.855 | 0.93 | 0.885 | 0.846 | 0.336 | 0.822 | 0.773 | 0.544 | 0.223
14 | EPLC-272H | 0.29 | 0.444 | 0.511 | 0.286 | 0.168 | 0.354 | 0.391 | 0.436 | 0.26 | 0.21 | 0.772 | 1.18 | 0.936 | 1.29 | 0.942 | 1.02 | 0.84 | 1.08
15 | H3255 | 0.767 | 0.816 | 0.996 | 0.72 | 0.638 | 0.656 | 0.589 | 0.714 | 0.571 | 0.458 | 0.24 | 0.255 | 0.247 | 0.235 | 0.696 | 0.812 | 0.725 | 0.702
16 | HARA | 0.66 | 0.606 | 0.515 | 0.489 | 0.515 | 0.414 | 0.597 | 0.586 | 0.584 | 0.178 | 0.758 | 1.05 | 0.745 | 0.547 | 0.702 | 0.955 | 0.638 | 0.176
17 | HCC-15 | 0.919 | 0.921 | 0.867 | 0.842 | 0.81 | 0.636 | 0.788 | 0.687 | 0.603 | 0.389 | 0.864 | 0.911 | 0.859 | 0.869 | 0.89 | 0.931 | 1.05 | 0.901
18 | HCC-44 | 1.07 | 1.1 | 1.1 | 1.04 | 1.22 | 0.924 | 1.04 | 0.856 | 1 | 1.05 | 1.06 | 1.08 | 1.07 | 0.937 | 0.817 | 0.937 | 0.825 | 0.864
19 | HCC-78 | 0.452 | 0.426 | 0.412 | 0.29 | 0.331 | 0.566 | 0.785 | 0.702 | 0.749 | 0.61 | 0.749 | 0.705 | 0.854 | 1.18 | 0.296 | 0.368 | 0.285 | 0.425
20 | HCC-366 | 0.264 | 0.482 | 0.332 | 0.137 | 0.077 | 0.317 | 0.372 | 0.36 | 0.344 | 0.112 | 1.06 | 1.02 | 1.08 | 1.02 | 0.44 | 0.503 | 0.542 | 0.616
